{
  "source": "patent US20210254101A1",
  "about": "“METHODS FOR TREATING SPINAL CORD INJURY” (THE CHILDREN'S MEDICAL CENTER CORPORATION, priority 2018, published 2021)",
  "key": {"[1]": {"tested_on": "propriospinal and brain-derived descending axons", "assay": "Axon regrowth tracing: retrograde HiRet-mCherry, anterograde AAV-ChR2, 5-HT immunohistochemistry", "format": "in vivo, mouse", "description": "To test these possibilities, it was determined whether CLP290 increased the regrowth of spared propriospinal axons, and/or their connecting axons from the brain. To analyze neuronal projections to the hindlimb locomotor control center in each condition, a retrograde tracing pseudotyped lentiviral vector (HiRet) expressing mCherry (HiRet-mCherry) (Kato et al., 2011; Wang et al., 2017; Liu et al., 2017) was injected into the lumbar enlargement (L2-L4). At 2 weeks after injury, most retrogradely labeled neurons were found in the spinal cord segments between and around the lesions, with few above the lesion and none in the brain ([…]). […] Similarly, the sprouting of serotonergic axons detected by 5-HT immunohistochemistry was also not affected by CLP290 treatment (FIG. 9D-9F). Thus, it is unlikely that CLP290 acts by promoting the regrowth of brain-derived descending axons into the relay zone, or propriospinal axons projecting to the lumbar spinal cord.\nFor reticulospinal tracing experiments (procedure was described previously (Esposito et al., 2014)), AAV2/8-ChR2-YFP and AAV2/8-ChR2-mCherry were injected into the mouse right and left reticular formation in the brain stem respectively. For CST tracing experiments (procedure was described previously (Liu et al., 2010; Liu et al., 2017)), AAV2/8-ChR2-mCherry was injected to the mouse right sensorimotor cortex (all AAV titers were adjusted to 0.5-5×10^13 copies/ml for injection, produced by The Viral Core, Boston Children's Hospital). For lumbar level retrograde tracing, vectors of HiRet-mCherry (lenti-virus titers were adjusted to 1.6-2×10^12 copies/ml for injection) were constructed based on the HiRet-lenti backbone (Kinoshita et al., 2012). Injection procedure was described previously (Wang et al., 2017), in which HiRet-mCherry is injected into left or right lumbar spinal cord from segments 2-4.\nSpinal cord transverse and horizontal sections were imaged with a confocal laser-scanning microscope (Zeiss 700 or Zeiss 710). To quantify and compare fluorescence intensity of: reticular spinal tract projections (RFP^+ and GFP^+), and corticospinal tract (CST) projections (GFP^+), at different transverse spinal cord segments sections (FIGS. 10A and 10C); as well as 5HT axonal staining (FIG. 10B). All images, used for analysis under multiple conditions, were taken using the same optical parameters to avoid saturation. Densitometry measurements were taken by using FIJI software, after being sub-thresholded to the background and normalized by area.\naTo quantify and compare the retrograde HiRet-marked cell body of spinal neurons in different treatments, all images were decomposed to individual channels and planes. They were aligned and quantified using custom-developed MATLAB codes. […]"}, "c-Fos": {"tested_on": "c-Fos", "assay": "c-Fos immunoreactivity in spinal cord segments between T7 and T10 after 1 hour walking", "format": "in vivo, mouse", "from_the_text": "In mature neurons, GABA and glycine are inhibitory because they open chloride channels, which allow chloride ion influx leading to hyperpolarization. In contrast, during development, the elevated intracellular chloride levels render GABAA- and glycine-mediated currents depolarizing and generally excitatory. During early postnatal life, KCC2 upregulation in postnatal neurons is crucial for reducing intracellular chloride concentrations, transforming excitation into inhibition (Ben-Ari et al., 2012; Kaila et al., 2014). Thus, injury-induced KCC2 down-regulation (Boulenguez et al., 2010; Cote et al., 2014) would be expected to restore an immature state in which GABA and glycine receptors can depolarize neurons. In this scenario, KCC2 activation in spinal inhibitory neurons would transform local circuits in the relay zone towards a more physiological state, which is more receptive to descending inputs. To examine this, c-Fos immunoreactivity was used as a proxy of neuronal activity in the spinal cord segments between T7 and T10 at 8 weeks after injury, and after walking on a treadmill for 1 hour. In each group, the majority of c-Fos-positive cells in these spinal segments were also positively stained with NeuN, a neuronal marker (FIG. 11A, 11B). In injured mice without treatment, the c-Fos-positive neurons were concentrated in the dorsal horn of the spinal cord (FIG. 5A-5C), perhaps reflecting hypersensitivity to peripheral sensory inputs in these injured mice. […] This KCC2-transformed distribution pattern is similar to what was detected in intact mice, in response to walking (FIG. 5A-5C).\nImmunohistochemistry and Imaging. The paraformaldehyde (PFA) fixed tissues were cryo-protected with 30% sucrose and processed using cryostat (section thickness 40 μm for spinal cord). Sections were treated with a blocking solution containing 10% normal donkey serum with 0.5% Triton-100 for 2 hours at room temperature before staining. The primary antibodies (4 □, overnight) used were: rabbit anti-GFAP [DAKO (Z0334), 1:600]; rabbit anti-5-HT [Immunostar (20080), 1:5,000]; chicken anti-GFP [Abcam (ab13970), 1:400]; rabbit anti-RFP [Abcam (ab34771), 1:400]; rabbit anti-PKCγ [Santa Cruz (sc211), 1:100]; rat anti-HA [Sigma (11867423001), 1:200]; rabbit anti-c-Fos [Cell signaling (2250s), 1:100]; and mouse anti-NeuN [Millipore (MAB377), 1:400]. Secondary antibodies (room temperature, 2 h) included: Alexa Fluor 488-conjugated donkey anti chicken and rabbit; and Alexa Fluor 594-conjugated donkey anti rabbit (all from Invitrogen). c-Fos immunoreactivity of spinal neurons was determined as previously described (Courtine et al., 2009), after 1-hour of continuous quadrupedal free walking (intact), stepping (CLP290 or AAV-KCC2 treated mice) or dragging (vehicle or AAV-GFP treated mice). The mice were returned to their cages, and were then anesthetized and sacrificed by intracardial perfusion of 4% PFA (wt/vol) in phosphate buffered saline (PBS) about 2 hours later."}, "neuropathic pain": {"tested_on": "neuropathic pain", "settings": "animal models; Gagnon et al., 2013; Ferrini et al., 2017; Knabl et al., 2008; cited from earlier work"}, "[2]": {"assay": "Side effects of compounds tested in the study", "format": "in vivo, mouse", "settings": "even at high doses; data not shown"}, "[3]": {"settings": "T8/9, 8 weeks after injury, chronic treatment, FIG. 5A-5C"}},
  "data": [
    {"smiles": "O=C1N=C(N2CCCCN2)S/C1=C\\c1ccc(F)cc1OC(=O)N1CCCC1", "note": "[CLP290, [5-Fluoro-2-[(Z)-(2-hexahydropyridazin-1-yl-4-oxo-thiazol-5-ylidene)methyl]phenyl] pyrrolidine-1-carboxylate]", "values": [
      {"measurement": "sprouting of serotonergic axons", "setting": "[1]; 5-HT immunohistochemistry, FIG. 9D-9F", "result": "not affected"},
      {"measurement": "number of retrogradely traced neurons in the spinal cord", "setting": "[1]; HiRet-mCherry injected into L2-L4, 10 weeks after injury, FIGS. 8C and 8F", "result": "did not affect these measures"},
      {"measurement": "sprouting of descending brainstem reticulospinal axons", "setting": "[1]; anterograde tracing with AAV-ChR2-mCherry and AAV-ChR2-GFP, 2 and 10 weeks after injury, FIG. 9A-9C", "result": "failed to reveal increased sprouting"},
      {"measurement": "sprouting of corticospinal axons", "setting": "[1]; anterograde tracing, 2 and 10 weeks after injury, FIG. 9G-9I", "result": "failed to reveal increased sprouting"},
      {"measurement": "c-Fos pattern after withdrawal of treatment", "setting": "c-Fos; 2 weeks after withdrawal, FIGS. 11C and 11D", "result": "returned to what seen without treatment"},
      {"measurement": "c-Fos-positive neurons in the dorsal horn (laminae I-V)", "setting": "c-Fos; [3]", "result": "a reduction in the dorsal horn"},
      {"measurement": "c-Fos-positive neurons in the intermediate/ventral spinal cord", "setting": "c-Fos; [3]", "result": "a significant increase in the intermediate/ventral spinal cord"},
      {"measurement": "effect on neuropathic pain", "setting": "neuropathic pain", "result": "effectively treat neuropathic pain in animal models"},
      {"measurement": "side effects", "setting": "[2]", "result": "negligible side effects even at high doses"}
    ]}
  ]
}
